From patent US20240116971A1, “NMN AND DERIVATIVES FOR ITS USE IN THE TREATMENT OF DEPRESSION AND/OR ANXIETY IN PATIENTS HAVING A FORM OF PARKINSONISM” (Nuvamid SA, priority 2021, published 2024) come the findings set out here.

One data set has as its system MSA patients. Kind of data set: Safety of NMN dietary supplement: hemodynamic, blood count, inflammatory, liver, kidney, cardiac/muscular, metabolic parameters, adverse events. The data set is classed as in vivo, human. The procedure:
The purpose of the multicentric, prospective, non-randomised, non-controlled pilot study is to study the efficacy of NMN administration in MSA patients (45-80 years old) at a larger scale. In this study, the safety, tolerance and efficacy of a dose of NMN are evaluated. The amount of NMN to be ingested daily is divided into 2 capsules (Size 0). Each patient takes 2 capsules/day in the morning during breakfast with a big glass of water. The composition of each capsule is as follows:
The main objectives of the study are to evaluate the safety of the dietary supplement during a 12-week supplementation. The safety of the food supplement is assessed in terms of: • a) Hemodynamic parameters: • Blood pressure (systolic and diastolic arterial pressure (SAP, DAP) standing up and lying down (2 min)), • Heart rate (HR, standing up/lying down (2 min)). • b) Blood Formula Counting: • Hematies, • Leukocytes (lymphocytes, monocytes, neutrophils, basophils, eosinophils), • Platelets. • c) Inflammatory parameters: • C Reactive Protein (CRP), • Sedimentation rate. • d) Liver function: • ASAT, • ALAT, • gamma GT, • Alkaline phosphatases. • e) Kidney function: • Creatinemia, • Urea. • Cardiac and muscular function: • Creatine Phosphokinase (CPK). • f) Metabolic/biochemical parameters: • lonogram (Na+, K+, Cl−), • glycated hemoglobin • g) Occurrence of undesirable effects.
48 hours before each follow-up visit by the neurological investigator, a nurse visits the patient's home to take blood samples and measure the hemodynamic parameters [SAP/DAP lying down, standing up (2 min) and HR lying down, standing up (2 min)]. In addition, during each visit, the possible occurrence of adverse events will be asked to patients. The nurse visits are scheduled between D-7 and D-2 to confirm the patient's inclusion, then at D13 (for visit V2 at D15), D43 (for visit V3 at D45) and D88 (for the end of study visit at D90). No fasting was required for the biologic assessments. To ensure the safety of the food supplement, all biological parameters must be within the limits of reference values and/or judged by the investigating physician as non-clinical.
Safety biology, pharmacokinetics and hemodynamic constants (D13; D43; D88): A blood sample is collected by a nurse at patient's home 48 hours before the visit to the investigational site (D13; D43 and D88) so that the investigator has the biological safety results on the day of the consultation.
The required bioassessment is the same as the inclusion one (D-2) and include: • Complete and differential Blood cells Counts, • Metabolic/biochemical parameters: lonogram (Na+, K+, Cl−), Glycated hemoglobin (HbA1C) • Inflammatory assessment: CRP, sedimentation rate, • Liver check-up: AST, ALT, gamma GT, ALP, bilirubin • Renal assessment: Creatinemia, urea, • Cardiac and muscular assessment: CPK;
Also, an aliquot of acidified whole blood is stored at the AML at −80° C. for the determination of NMN metabolites. The hemodynamic constants (BP and HR standing up/lying down) are taken and entered in the patient's follow-up notebook by the nurse. The nurse also questions the patient on the possible occurrence of adverse events and checks the patient's compliance with treatment by filling in his or her follow-up notebook and pill box. On receipt, the investigating physician check the results: the blood parameters must be within the reference value limits and/or judged by the investigating physician as not clinically relevant. Otherwise, the patient is summoned without delay by the investigating physician to leave the study prematurely.
At D90, the safety and tolerance of the study product is assessed by the investigating physician during the visits provided for in the protocol by means of an interview with the patient, information gathered by the volunteer in the daily diary, a clinical examination (including blood pressure and heart rate measurements) and a blood test. All patients continued to take their usual treatment for MSA.

Data set [1] is described as follows: Blood level of NMN and NAD. It is filed as in vivo, human. The source says:
The secondary objectives describe the characteristics of the patients who participated in the research, and aim at studying the pharmacokinetics of NMN in daily oral use and its impact on increasing NAD+ levels, and, in a preliminary way, at evaluating the potential benefits of NMN supplementation on the symptomatology related to multi-systemic atrophy syndrome MSA such as activities of daily living, motor disorders, orthostatic hypotension and autonomy using the validated […] scale. [table] Also, an aliquot of serum is stored at the laboratory at -80° C. for the determination of the patient's physiological NAD+ (Baseline) level by the promoter. The results are sent to the investigating responsible for checking these parameters (regarding the laboratory's standards) and validating or not the patient's eligibility. […] Also, an aliquot of acidified whole blood is stored at the AML at -80° C. for the determination of NMN metabolites. The hemodynamic constants (BP and HR standing up/lying down) are taken and entered in the patient's follow-up notebook by the nurse. The nurse also questions the patient on the possible occurrence of adverse events and checks the patient's compliance with treatment by filling in his or her follow-up notebook and pill box. On receipt, the investigating physician check the results: the blood parameters must be within the reference value limits and/or judged by the investigating physician as not clinically relevant. Otherwise, the patient is summoned without delay by the investigating physician to leave the study prematurely.

Where [2] appears, read: 3-month supplementation with NMN (400 mg/day) per os, MSA patients, mITT and PP.

For `NC(=O)c1ccc[n+]([C@@H]2O[C@H](COP(=O)([O-])O)[C@@H](O)[C@H]2O)c1` [beta-NMN, nicotinamide mononucleotide], the “ionogram and glycated hemoglobin level” value in the data set on MSA patients (3-month follow-up) is on record as “stable”. In the data set on MSA patients (3 months), the “impact on liver function” value was “does not thus have an impact” and the induction of inflammation entry is recorded as “does not thus induce inflammation”. Besides, in the data set on MSA patients (3 months of follow-up), the creatine phosphokinase entry was “relatively stable”, the liver parameters result was “relatively stable” and the renal parameters result is listed as “relatively stable”. For the same compound, the inflammatory parameters result in the data set on MSA patients (3 months of follow-up, within or outside reference values, not clinically relevant) is given as “relatively stable”. For the same compound, the blood count values result with MSA patients (3 months of follow-up, within reference limits or not clinically relevant) is “relatively stable”. Moreover, the “safety and tolerance, conclusion” value in the data set on MSA patients (MSA patients, 3 months) was “safe and well-tolerated”. Also, the “increase in average blood pressure and heart rate” value in the data set with MSA patients (NMN 400 mg/day, 3 months) is “does not thus lead to an increase”. For the same compound, in the data set with MSA patients (NMN 400 mg/day, 3 months, V0-V4 comparison p-value=0.2969), the “mean heart rate (HR)” value is “normal and stable over time”. Moreover, the “Mean systolic blood pressure” value in the data set on MSA patients (NMN 400 mg/day, 3 months, V0-V4 comparison p-value=0.6172) was “normal and stable over time”. In addition, the “Mean diastolic blood pressure” value in the data set with MSA patients (NMN 400 mg/day, 3 months, V0-V4 comparison p-value=0.6719) is “normal and stable over time”. Besides, in the data set on MSA patients (after 3 months of treatment), the “concentration of electrolytes (Na+, K+, Cl−) and glycemia” value is “does not affect”; the “impact on heart and muscle function” value is listed as “does not have an impact”. In data set [1] (setting [2]), the “blood levels of NAD” value is “gradually increases” and the “blood levels of NMN” value is listed as “gradually increases”. Moreover, the “blood NAD level, mean value” in data set [1] (mITT population, V4 (n=8 subjects), NMN 400 mg/day per os, V1 16183.57±4205.09 (n=4 subjects)) stood at 29194.12 ± 9706.95 ng/mL.
